Experiments:
preformed Aβ42 fibrils = molecular target: T1, preformed Aβ42 fibrils (Homo sapiens, UniProt P05067); experiment: Destabilization assay (ThT fluorescence): destabilization of preformed Aβ42 fibrils; assay type: biochemical; conditions: for EC50: fibrils preformed from 25 μM Aβ42 (24 h, 37 °C), further 24 h at 37 °C with compound, ThT fluorescence
T1 construct: The Aβ42 peptide was produced by Bachem AG; purchased Bachem AG
Protocol: The destabilization assay used to evaluate the activities of the polyphenolic compounds towards the destabilization of preformed fibrils was performed as described by Ono et al.. Briefly, a reaction mixture containing 25 μM Aβ42 and 50 mM phosphate buffer (pH 7.5 and 100 mM NaCl) was incubated on a PCR system for 24 h at 37 °C to form fibrils. All of the test compounds (i.e., C, EC, GC, EGC, P-B1, and P-B3) were initially dissolved in DMSO at concentrations of 30, 100 and 300 μM, and 1 and 3 mM, before being added to the reaction mixture to give final concentrations of 0.3, 1.0, 3.0, 10, and 30 μM, respectively. The resulting mixtures were continued the incubation of 24 h at 37 °C, and then subjected to fluorescent measurements as in the polymerization assay.
(§1) The fluorescence measurements were recorded on an Envision® 2104 Multilabel Reader (Perkin Elmer, Waltham, MA, USA), with optimized excitation and emission wavelengths of 430 (BW 24 nm) and 470 nm (BW 24 nm), respectively. The reaction mixture contained 5 μM ThT and 50 mM of glycine-NaOH buffer (pH 8.5). The IC50 and EC50 values were calculated using the GraphPad Prism 5 software. All results were expressed as the mean ± SEM, and statistical analyses were performed using the Student’s t test.

Aβ42 [1] = molecular target: T2, Aβ42 (Homo sapiens, UniProt P05067); experiment: Polymerization assay (ThT fluorescence): inhibition of Aβ42 aggregation; assay type: biochemical; conditions: for IC50: 25 μM Aβ42, 1% DMSO, 50 mM phosphate buffer pH 7.5, 100 mM NaCl, ThT fluorescence
T2 construct: The Aβ42 peptide was produced by Bachem AG; purchased Bachem AG
T2 sequence (P05067 672-713 limits assumed, species assumed): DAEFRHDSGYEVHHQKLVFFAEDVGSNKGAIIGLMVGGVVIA
Protocol: The polymerization assay was performed as previously described in the literature. For single compounds, the reaction mixture contained 25 μM Aβ42, 0.3, 1.0, 3.0, 10, or 30 μM C, EC, GC, EGC, P-B1, or P-B3, 1% DMSO, 50 mM phosphate buffer (pH 7.5) and 100 mM NaCl. Prior to being tested, the compounds were dissolved in DMSO at concentrations of 30, 100 and 300 μM, and 1.0 and 3.0 mM, and then added to the reaction mixture to final concentrations 0.3, 1.0, 3.0, 10, and 30 μM, respectively. For the extract and its fractions, different concentration sequences were incubated in the reaction mixture. With the exception of one sequence (i.e., 3.0, 10, 30, 100 and 200 μg/mL) for Fr. Ts and another (i.e., 0.3, 1.0, 3.0, 10, 30 μg/mL) for Fr. Ps, one concentration sequence (i.e., 1.0, 3.0, 10, 30 and 100 μg/mL) was used for the extract and all of the other fractions.
as §1

Aβ42 [2] = molecular target: T2, Aβ42; parameters: method as in PMID 24727418; conditions: earlier work of the same authors; cited from earlier work

T1 sequence (P05067 672-713 limits assumed, species assumed): as above

Oc1cc(O)c2c(c1)O[C@H](c1cc(O)c(O)c(O)c1)[C@@H](O)C2 [GC, (−)-gallocatechin]
EC50 (preformed Aβ42 fibrils): 15.7 ± 3.19 µM | ability to destabilize fibrils (in words) (preformed Aβ42 fibrils; this paper's destabilization assay): least influence | IC50 (Aβ42 [1]): 17.5 ± 0.57 µM | inhibitory activity towards Aβ42 aggregation (in words) (Aβ42 [1]; this paper's polymerization assay): least influence

Oc1cc(O)c2c(c1)O[C@H](c1ccc(O)c(O)c1)[C@@H](O)C2 [C, (+)-catechin]
EC50 (preformed Aβ42 fibrils): 5.27 ± 1.26 µM | activity towards Aβ42 aggregation in vitro (in words) (Aβ42 [2]): very little activity | IC50 (Aβ42 [1]): 14.9 ± 3.42 µM

CC(C)(C)[C@]1(O)CC2OC(=O)CC23C(=O)OC2OC(=O)[C@H](O)C231 (stereo partly drawn) [bilobalide]
activity towards Aβ42 aggregation in vitro (in words) (Aβ42 [2]): very little activity

Oc1cc(O)c2c(c1)O[C@H](c1ccc(O)c(O)c1)[C@@H](O)[C@@H]2c1c(O)cc(O)c2c1O[C@H](c1ccc(O)c(O)c1)[C@@H](O)C2 [P-B3, procyanidin B3]
EC50 (preformed Aβ42 fibrils): 5.12 ± 0.75 µM | IC50 (Aβ42 [1]): 3.54 ± 0.39 µM

ginkgolide B
activity towards Aβ42 aggregation in vitro (in words) (Aβ42 [2]): very little activity

Oc1cc(O)c2c(c1)O[C@H](c1cc(O)c(O)c(O)c1)[C@H](O)C2 [EGC, (−)-epigallocatechin]
EC50 (preformed Aβ42 fibrils): 7.76 ± 0.94 µM | IC50 (Aβ42 [1]): 8.51 ± 0.96 µM

C[C@@H]1C(=O)O[C@H]2C[C@@]34[C@H]5C[C@@H](C(C)(C)C)[C@]36[C@@H](OC(=O)[C@@H]6O)O[C@@]4(C(=O)O5)[C@]21O [ginkgolides A, ginkgolide A]
activity towards Aβ42 aggregation in vitro (in words) (Aβ42 [2]): very little activity

Oc1cc(O)c2c(c1)O[C@H](c1ccc(O)c(O)c1)[C@H](O)[C@H]2c1c(O)cc(O)c2c1O[C@H](c1ccc(O)c(O)c1)[C@@H](O)C2 [P-B1, Procyanidin B1]
EC50 (preformed Aβ42 fibrils): 3.51 ± 0.32 µM | IC50 (Aβ42 [1]): 3.28 ± 0.46 µM

Oc1cc(O)c2c(c1)O[C@H](c1ccc(O)c(O)c1)[C@H](O)C2 [EC, (−)-epicatechin]
EC50 (preformed Aβ42 fibrils): 5.99 ± 0.6 µM | IC50 (Aβ42 [1]): 9.44 ± 0.24 µM

From PMC6271394, “Catechins and Procyanidins of Ginkgo biloba Show Potent Activities towards the Inhibition of β-Amyloid Peptide Aggregation and Destabilization of Preformed Fibrils” (Molecules, 2014)
